Test results: PubChem BioAssay AID328 (DTP/NCI, 2004)
“And” between values parts separate entries of the source, which are not always exact repeats. Equal entries are not always repeated. Toxic doses and inconclusive results are not listed. The calls were made as follows: active = survival T/C of 150% or more; inactive = T/C below 125% in these data. Residues, ends and D or L forms follow the SMILES beside them.

Tested on: BDF1 mice, P388 leukemia ip, median survival T/C
Experiment: NCI In Vivo Anticancer Drug Screen. Data for tumor model P388 Leukemia (intraperitoneal) in B6D2F1 (BDF1) mice
Settings: endpoint: median survival time, higher = longer survival
Description: The antitumor activity of compounds was measured in mice bearing transplantable tumors. Survival or tumor size were measured and the results are expressed as the measurement made in the treated group (T) divided by the measurement made in the vehicle treated control group (C). The tumor model used in this assay is P388 Leukemia (intraperitoneal) in B6D2F1 (BDF1) mice

[1] = dose: 12.5 mg/kg/injection, schedule: Q01DX009 (ip), vehicle: saline
[2] = dose: 50.0 mg/kg/injection, schedule: Q01DX009 (ip), vehicle: saline with Tween-80
[3] = dose: 100.0 mg/kg/injection, schedule: Q01DX009 (ip), vehicle: saline with Tween-80
[4] = dose: 200.0 mg/kg/injection, schedule: Q01DX009 (ip), vehicle: saline with Tween-80
[5] = dose: 12.5 mg/kg/injection, schedule: Q01DX009 (ip), vehicle: saline with Tween-80
[6] = dose: 50.0 mg/kg/injection, schedule: Q04DX003 (ip), vehicle: saline with Tween-80
[7] = dose: 100.0 mg/kg/injection, schedule: Q04DX003 (ip), vehicle: saline with Tween-80
[8] = dose: 12.5 mg/kg/injection, schedule: Q04DX003 (ip), vehicle: saline with Tween-80
[9] = dose: 25.0 mg/kg/injection, schedule: Q01DX009 (ip), vehicle: saline with Tween-80
[10] = dose: 25.0 mg/kg/injection, schedule: Q04DX003 (ip), vehicle: saline with Tween-80
[11] = dose: 200.0 mg/kg/injection, schedule: Q04DX003 (ip), vehicle: saline with Tween-80

Measured: T/C

CN(C)c1ccc2nc3ccc(=[N+](C)C)cc-3sc2c1
inactive: dose: 2.5 mg/kg/injection, schedule: Q01DX009 (ip), vehicle: saline 113 % of control | dose: 5.0 mg/kg/injection, schedule: Q01DX009 (ip), vehicle: saline 104 % of control | dose: 7.2 mg/kg/injection, schedule: Q04DX003 (ip), vehicle: saline 110 % of control | dose: 10.0 mg/kg/injection, schedule: Q01DX009 (ip), vehicle: saline 122 % of control | dose: 10.0 mg/kg/injection, schedule: Q04DX003 (ip), vehicle: saline 110 % of control | dose: 11.5 mg/kg/injection, schedule: Q04DX003 (ip), vehicle: saline 100 % of control | [1] 100 % of control | dose: 16.5 mg/kg/injection, schedule: Q01DX009 (ip), vehicle: saline 95 % of control and 100 % of control | dose: 20.0 mg/kg/injection, schedule: Q01DX009 (ip), vehicle: saline 104 % of control | dose: 25.0 mg/kg/injection, schedule: Q01DX009 (ip), vehicle: saline 100 % of control and 104 % of control | dose: 37.5 mg/kg/injection, schedule: Q01DX009 (ip), vehicle: saline 95 % of control | dose: 37.5 mg/kg/injection, schedule: Q04DX003 (ip), vehicle: saline 100 % of control

NCCCCC(N)C(=O)NC(CCCN=C(N)N)C(N)=O (stereo not drawn) (H-Lys-Arg-NH2; configuration not given here)
inactive: dose: 6.25 mg/kg/injection, schedule: Q04DX003 (ip), vehicle: water 115 % of control | dose: 12.5 mg/kg/injection, schedule: Q04DX003 (ip), vehicle: water 112 % of control | dose: 25.0 mg/kg/injection, schedule: Q01DX009 (ip), vehicle: water 101 % of control | dose: 25.0 mg/kg/injection, schedule: Q04DX003 (ip), vehicle: water 104 % of control | dose: 50.0 mg/kg/injection, schedule: Q01DX009 (ip), vehicle: water 108 % of control | dose: 50.0 mg/kg/injection, schedule: Q04DX003 (ip), vehicle: water 97 % of control | dose: 100.0 mg/kg/injection, schedule: Q01DX009 (ip), vehicle: water 111 % of control | dose: 100.0 mg/kg/injection, schedule: Q04DX003 (ip), vehicle: water 104 % of control | dose: 200.0 mg/kg/injection, schedule: Q01DX009 (ip), vehicle: water 106 % of control | dose: 400.0 mg/kg/injection, schedule: Q01DX009 (ip), vehicle: water 106 % of control

CSCCCNC(=O)c1csc(-c2csc(CCNC(=O)C(F)(F)F)n2)n1
inactive: [2] 103 % of control | [3] 114 % of control | [4] 87 % of control

Nc1ccccc1SC1CC(=O)N(c2ccccc2)C1=O (stereo not given)
inactive: dose: 100.0 mg/kg/injection, schedule: Q01DX001 (ip), vehicle: Klucel (hydroxypropylcellulose) (HPC) 100 % of control | dose: 100.0 mg/kg/injection, schedule: Q01DX009 (ip), vehicle: Klucel (hydroxypropylcellulose) (HPC) 116 % of control | dose: 100.0 mg/kg/injection, schedule: Q04DX003 (ip), vehicle: Klucel (hydroxypropylcellulose) (HPC) 100 % of control | dose: 200.0 mg/kg/injection, schedule: Q01DX001 (ip), vehicle: Klucel (hydroxypropylcellulose) (HPC) 95 % of control | dose: 200.0 mg/kg/injection, schedule: Q01DX009 (ip), vehicle: Klucel (hydroxypropylcellulose) (HPC) 122 % of control | dose: 200.0 mg/kg/injection, schedule: Q04DX003 (ip), vehicle: Klucel (hydroxypropylcellulose) (HPC) 95 % of control | dose: 400.0 mg/kg/injection, schedule: Q01DX001 (ip), vehicle: Klucel (hydroxypropylcellulose) (HPC) 95 % of control | dose: 400.0 mg/kg/injection, schedule: Q01DX009 (ip), vehicle: Klucel (hydroxypropylcellulose) (HPC) 105 % of control | dose: 400.0 mg/kg/injection, schedule: Q04DX003 (ip), vehicle: Klucel (hydroxypropylcellulose) (HPC) 95 % of control

FC(F)c1nc2nc(Cl)c(Cl)nc2[nH]1
inactive: [5] 110 % of control | [2] 120 % of control | [6] 100 % of control | dose: 75.0 mg/kg/injection, schedule: Q01DX009 (ip), vehicle: saline with Tween-80 103 % of control | [7] 109 % of control

CN1CC(C(=O)N2CCCCC2)C=C2c3cccc4[nH]cc(c34)CC21 (stereo not given)
inactive: dose: 3.12 mg/kg/injection, schedule: Q01DX009 (ip), vehicle: saline 95 % of control | dose: 6.25 mg/kg/injection, schedule: Q01DX009 (ip), vehicle: saline 113 % of control | [1] 104 % of control | dose: 25.0 mg/kg/injection, schedule: Q04DX003 (ip), vehicle: saline 116 % of control | dose: 50.0 mg/kg/injection, schedule: Q04DX003 (ip), vehicle: saline 87 % of control

O=Cc1nccn1Cc1ccccc1
inactive: [5] 116 % of control | [8] 100 % of control | [9] 100 % of control | [10] 103 % of control | [2] 108 % of control | [6] 96 % of control | [3] 105 % of control | [7] 106 % of control | [4] 98 % of control | [11] 101 % of control and 106 % of control | dose: 300.0 mg/kg/injection, schedule: Q04DX003 (ip), vehicle: saline with Tween-80 103 % of control | dose: 400.0 mg/kg/injection, schedule: Q01DX009 (ip), vehicle: saline with Tween-80 107 % of control

CC(=O)OC1CC2CCCCC21 (stereo not given)
inactive: dose: 50.0 mg/kg/injection, schedule: Q01DX009 (ip), vehicle: other 116 % of control | dose: 100.0 mg/kg/injection, schedule: Q01DX009 (ip), vehicle: other 105 % of control | dose: 200.0 mg/kg/injection, schedule: Q01DX009 (ip), vehicle: other 100 % of control

Cc1ccc(S(=O)(=O)/N=C/NN(C)C)cc1
inactive: [2] 97 % of control | [3] 112 % of control | [4] 98 % of control

CCOC(=O)C1=S=C(SC)N(C)C1=O
inactive: [2] 106 % of control and 115 % of control | [3] 103 % of control and 116 % of control

O=C(C(=O)c1ccc(Cl)cc1)c1ccc(Cl)cc1
inactive: dose: 12.5 mg/kg/injection, schedule: Q04DX003 (ip), vehicle: other 100 % of control | dose: 25.0 mg/kg/injection, schedule: Q04DX003 (ip), vehicle: other 86 % of control

CCCNCCC(O)c1cc(C(F)(F)F)nc2c(C(F)(F)F)cccc12 (stereo not given)
inactive: [9] 103 % of control | [2] 111 % of control and 124 % of control | [3] 111 % of control

NNC(=O)C1CC2C=CCC(C2)C1 (stereo not given)
inactive: dose: 50.0 mg/kg/injection, schedule: Q01DX001 (ip), vehicle: saline with Tween-80 100 % of control | dose: 100.0 mg/kg/injection, schedule: Q01DX001 (ip), vehicle: saline with Tween-80 91 % of control | dose: 200.0 mg/kg/injection, schedule: Q01DX001 (ip), vehicle: saline with Tween-80 91 % of control

Nc1nc2ncc(CNc3ccc(C(=O)NC(CCC(=O)O)C(=O)O)cc3)nc2c(=O)[nH]1 (stereo not given)
inactive: [5] 100 % of control | [9] 106 % of control | [2] 107 % of control | dose: 50.0 mg/kg/injection, schedule: Q01DX010 (ip), vehicle: saline 100 % of control

Nc1nc(SCc2ccccc2)c2ncn(C3CCCC3)c2n1
inactive: [7] 100 % of control | [11] 100 % of control | dose: 400.0 mg/kg/injection, schedule: Q04DX003 (ip), vehicle: saline with Tween-80 100 % of control

CCOC(=O)C1=C(C)NC(=O)NC1c1ccc(N=Cc2cc(Br)ccc2O)cc1 (stereo not given)
inactive: dose: 75.0 mg/kg/injection, schedule: Q01DX001 (ip), vehicle: saline with Tween-80 95 % of control | dose: 150.0 mg/kg/injection, schedule: Q01DX001 (ip), vehicle: saline with Tween-80 90 % of control | dose: 300.0 mg/kg/injection, schedule: Q01DX001 (ip), vehicle: saline with Tween-80 90 % of control

CC1OC(O[C@@H]2C=C3CC[C@@H]4[C@H](CC[C@]5(C)[C@@H](c6ccc(=O)oc6)CC[C@]45O)[C@@]3(C)CC2)C(O)C(O)C1O (stereo not given in full)
inactive: dose: 2.5 mg/kg/injection, schedule: Q01DX010 (ip), vehicle: carboxymethylcellulose (CMC) 105 % of control | dose: 5.0 mg/kg/injection, schedule: Q01DX010 (ip), vehicle: carboxymethylcellulose (CMC) 105 % of control

CC1CCCC(CN=Cc2cc([N+](=O)[O-])ccc2O)[N-]1.CC1CCCC(CN=Cc2cc([N+](=O)[O-])ccc2O)[N-]1.[Ni+2] (stereo not given)
inactive: [8] 100 % of control | [10] 100 % of control | [6] 100 % of control

Cc1ccc(S(=O)(=O)N/N=C/C(O)C(O)C(O)CO)cc1 (stereo not given)
inactive: dose: 100.0 mg/kg/injection, schedule: Q01DX001 (ip), vehicle: saline 110 % of control | dose: 200.0 mg/kg/injection, schedule: Q01DX001 (ip), vehicle: saline 105 % of control | dose: 400.0 mg/kg/injection, schedule: Q01DX001 (ip), vehicle: saline 120 % of control
